Reference: ChEMBL document CHEMBL1201862, “PubChem BioAssay data set” (2004)
Active and inactive are the calls of the source.

How the values were obtained:
[1] = growth suppression of PTEN-null colon cells, dose response, cell-based, HCT116 PTEN knockout (AID 1047); type: functional;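 note: HCT116 colon tumor cells with PTEN knocked out; cells exposed to compound for 60 hours before readout; potency for loss of cell viability measured by luminescence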
[2] = growth suppression of beta-catenin-knockout colon cells, dose response, cell-based, HCT116, human colon tumor (AID 1045); type: functional;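 note: HCT116 colon tumor cells with beta catenin knocked out; cells exposed to compound for 60 hours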
[3] = molecular target: Adenosylmethionine-8-amino-7-oxononanoate aminotransferase (Mycobacterium tuberculosis, UniProt P9WQ81); assay: Mycobacterium tuberculosis BioA enzyme inhibitor Measured in Biochemical System Using Plate Reader - 2163-02_Inhibitor_Dose_CherryPick_Activity.; type: functional, Mycobacterium tuberculosis UT205
Sequence of Adenosylmethionine-8-amino-7-oxononanoate aminotransferase (P9WQ81 whole entry): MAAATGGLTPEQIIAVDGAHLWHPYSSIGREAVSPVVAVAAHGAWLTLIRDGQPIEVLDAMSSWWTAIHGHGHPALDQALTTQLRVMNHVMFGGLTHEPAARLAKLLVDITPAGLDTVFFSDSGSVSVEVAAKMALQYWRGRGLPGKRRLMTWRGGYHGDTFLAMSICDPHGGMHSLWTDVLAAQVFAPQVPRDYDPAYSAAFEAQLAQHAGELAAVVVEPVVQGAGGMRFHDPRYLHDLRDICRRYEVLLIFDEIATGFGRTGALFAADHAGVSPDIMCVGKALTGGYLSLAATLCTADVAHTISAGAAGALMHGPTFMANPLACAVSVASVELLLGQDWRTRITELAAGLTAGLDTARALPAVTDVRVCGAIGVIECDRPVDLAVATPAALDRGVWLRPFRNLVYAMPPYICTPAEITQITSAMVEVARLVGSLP

[4] = molecular target: T1, Apoptotic protease-activating factor 1 (Homo sapiens, UniProt O14727); assay: SAR analysis of small molecule Activators of Apaf-1 in a Fluorescent assay.; type: functional; conditions: read-out: EC50_Mean;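 note: caspase-3 cleavage of fluorogenic Rh110 DEVD substrate downstream of apoptosome activation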
T1 sequence (O14727 whole entry): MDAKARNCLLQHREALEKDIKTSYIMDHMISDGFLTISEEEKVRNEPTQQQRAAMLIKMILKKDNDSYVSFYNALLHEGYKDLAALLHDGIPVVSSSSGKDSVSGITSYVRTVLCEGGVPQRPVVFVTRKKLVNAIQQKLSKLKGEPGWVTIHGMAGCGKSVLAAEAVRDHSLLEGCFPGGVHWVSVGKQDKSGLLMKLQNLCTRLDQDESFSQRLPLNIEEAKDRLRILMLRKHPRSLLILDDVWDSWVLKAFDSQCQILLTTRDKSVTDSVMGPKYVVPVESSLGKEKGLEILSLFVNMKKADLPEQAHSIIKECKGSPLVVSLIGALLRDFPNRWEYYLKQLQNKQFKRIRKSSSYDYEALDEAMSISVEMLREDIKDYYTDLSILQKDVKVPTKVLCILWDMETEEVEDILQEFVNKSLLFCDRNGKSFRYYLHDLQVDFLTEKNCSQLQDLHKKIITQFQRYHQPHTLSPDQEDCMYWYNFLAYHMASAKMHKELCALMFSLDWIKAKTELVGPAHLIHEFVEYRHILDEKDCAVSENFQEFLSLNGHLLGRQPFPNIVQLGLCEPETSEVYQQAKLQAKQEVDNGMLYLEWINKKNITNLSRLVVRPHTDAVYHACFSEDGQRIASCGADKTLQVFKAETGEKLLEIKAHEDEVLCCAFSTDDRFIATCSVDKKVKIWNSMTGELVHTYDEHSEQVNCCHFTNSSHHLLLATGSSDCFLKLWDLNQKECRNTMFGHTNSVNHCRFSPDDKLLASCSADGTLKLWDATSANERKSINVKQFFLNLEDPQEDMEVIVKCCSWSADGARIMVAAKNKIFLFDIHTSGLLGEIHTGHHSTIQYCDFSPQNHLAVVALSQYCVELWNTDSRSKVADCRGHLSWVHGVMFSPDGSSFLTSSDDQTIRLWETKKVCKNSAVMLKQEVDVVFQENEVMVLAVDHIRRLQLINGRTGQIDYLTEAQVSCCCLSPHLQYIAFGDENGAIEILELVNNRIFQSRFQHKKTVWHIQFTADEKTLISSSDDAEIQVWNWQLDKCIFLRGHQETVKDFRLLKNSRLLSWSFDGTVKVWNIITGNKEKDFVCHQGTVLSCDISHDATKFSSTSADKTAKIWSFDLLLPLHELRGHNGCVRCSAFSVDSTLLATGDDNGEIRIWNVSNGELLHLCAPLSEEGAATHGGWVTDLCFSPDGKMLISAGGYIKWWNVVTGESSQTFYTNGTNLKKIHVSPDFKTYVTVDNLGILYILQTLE

[5] = molecular target: Induced myeloid leukemia cell differentiation protein Mcl-1 (Homo sapiens, UniProt Q07820); type: functional
Sequence of Induced myeloid leukemia cell differentiation protein Mcl-1 (Q07820 whole entry): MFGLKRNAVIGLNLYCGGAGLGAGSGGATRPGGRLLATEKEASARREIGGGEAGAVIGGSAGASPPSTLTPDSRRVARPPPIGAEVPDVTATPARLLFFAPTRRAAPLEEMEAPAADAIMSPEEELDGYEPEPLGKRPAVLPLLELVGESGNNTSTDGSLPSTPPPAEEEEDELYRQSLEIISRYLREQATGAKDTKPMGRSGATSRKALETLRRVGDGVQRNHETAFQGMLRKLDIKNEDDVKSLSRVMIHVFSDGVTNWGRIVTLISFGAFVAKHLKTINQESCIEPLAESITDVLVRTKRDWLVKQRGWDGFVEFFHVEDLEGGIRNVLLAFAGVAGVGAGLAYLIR

CHO-K1 = assay: (§1) Counterscreen for antagonists of the orexin 1 receptor (OX1R; HCRTR1): Homogeneous time resolved fluorescence (HTRF)-based cell-based dose response assay to identify antagonists of the parental CHO-K1 cell line. [Related pubchem assays (depositor defined):AID434989, AID435008, AID463079, AID485270, AID492963, AID492964, AID492965, AID493232, AID504699, AID504701]; type: functional; conditions: Cricetulus griseus
[6] = as §1, with “Fluorescence-based” for “Homogeneous time resolved fluorescence (HTRF)-based”, “cell-based high throughput” for “cell-based”, “CHO” for “CHO-K1”; type: functional
[7] = molecular target: T2, Orexin/Hypocretin receptor type 1 (Homo sapiens, UniProt O43613); assay: Homogeneous Time Resolved Fluorescence (HTRF)-based cell-based high throughput dose response assay for antagonists of the orexin 1 receptor (OX1R; HCRTR1). [Related pubchem assays (depositor defined):AID434989, AID435008, AID463079, AID485270, AID492963, AID492964, AID492965, AID493232, AID504717, AID504718]; type: functional
T2 sequence (O43613 whole entry): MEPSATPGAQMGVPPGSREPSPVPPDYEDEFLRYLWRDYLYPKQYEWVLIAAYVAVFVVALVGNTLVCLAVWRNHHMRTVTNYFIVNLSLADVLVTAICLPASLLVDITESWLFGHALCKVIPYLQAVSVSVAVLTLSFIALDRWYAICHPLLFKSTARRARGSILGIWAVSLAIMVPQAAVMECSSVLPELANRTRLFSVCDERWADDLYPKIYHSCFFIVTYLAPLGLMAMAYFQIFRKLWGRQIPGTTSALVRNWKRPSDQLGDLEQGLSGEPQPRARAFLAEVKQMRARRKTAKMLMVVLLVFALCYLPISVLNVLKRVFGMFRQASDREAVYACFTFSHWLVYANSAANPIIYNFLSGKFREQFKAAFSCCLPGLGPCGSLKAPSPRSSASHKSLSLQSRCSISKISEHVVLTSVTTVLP

[8] = molecular target: T2, Orexin/Hypocretin receptor type 1; assay: Fluorescence-based cell-based high throughput dose response assay for antagonists of the orexin 1 receptor (OX1R; HCRTR1). [Related pubchem assays (depositor defined):AID434989, AID435008, AID463079, AID485270, AID492963, AID492964, AID492965, AID493232, AID504717, AID504718]; type: functional
Orexin receptor type 2 [9] = molecular target: T3, Orexin receptor type 2 (Homo sapiens, UniProt O43614); assay: Counterscreen assay for antagonists of the orexin 1 receptor (OX1R; HCRTR1): Fluorescence-based cell-based dose response assay for antagonists of the orexin 2 receptor (OX2R; HCRTR2), run by assay provider.; type: functional
T3 sequence (O43614 whole entry): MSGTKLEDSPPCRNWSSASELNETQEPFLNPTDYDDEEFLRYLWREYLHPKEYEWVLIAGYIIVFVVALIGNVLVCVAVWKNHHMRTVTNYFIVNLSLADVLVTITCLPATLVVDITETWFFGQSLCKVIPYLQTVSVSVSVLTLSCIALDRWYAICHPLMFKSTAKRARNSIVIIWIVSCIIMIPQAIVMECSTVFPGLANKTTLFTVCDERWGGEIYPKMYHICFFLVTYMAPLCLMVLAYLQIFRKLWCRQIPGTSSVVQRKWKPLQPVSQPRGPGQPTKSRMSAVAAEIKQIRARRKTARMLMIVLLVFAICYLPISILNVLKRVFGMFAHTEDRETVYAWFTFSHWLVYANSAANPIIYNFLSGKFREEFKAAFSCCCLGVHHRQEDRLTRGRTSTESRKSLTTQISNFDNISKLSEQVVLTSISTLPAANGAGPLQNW

Orexin receptor type 2 [10] = molecular target: T3, Orexin receptor type 2; assay: Counterscreen assay for antagonists of the orexin 1 receptor (OX1R; HCRTR1): Homogeneous Time Resolved Fluorescence (HTRF)-based cell-based dose response assay for antagonists of the orexin 2 receptor (OX2R; HCRTR2), run by assay provider.; type: functional
Cysteine protease ATG4B = molecular target: T4, Cysteine protease ATG4B (Homo sapiens, UniProt Q9Y4P1); type: functional;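 note: Fluorescence-based dose-response confirmation assay measuring inhibition of ATG4B activity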
T4 sequence (Q9Y4P1 whole entry): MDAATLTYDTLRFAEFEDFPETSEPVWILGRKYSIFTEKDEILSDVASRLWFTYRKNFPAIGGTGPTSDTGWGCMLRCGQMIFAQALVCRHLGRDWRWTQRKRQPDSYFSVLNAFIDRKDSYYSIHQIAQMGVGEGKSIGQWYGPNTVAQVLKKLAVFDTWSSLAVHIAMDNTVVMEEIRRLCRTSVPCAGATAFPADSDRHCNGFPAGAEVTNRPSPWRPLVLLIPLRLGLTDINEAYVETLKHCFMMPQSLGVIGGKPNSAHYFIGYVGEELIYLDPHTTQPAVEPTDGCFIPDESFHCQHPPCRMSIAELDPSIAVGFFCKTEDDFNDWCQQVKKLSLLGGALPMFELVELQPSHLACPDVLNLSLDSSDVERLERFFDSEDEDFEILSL

Phospholipase A2 = Phospholipase A2 (Homo sapiens, UniProt P04054); type: functional;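 note: confirmatory dose-response counterscreen on phospholipase A2, testing hits that came from an ultra-high-throughput screen for ATG4B inhibitors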
Sequence of Phospholipase A2 (P04054 whole entry): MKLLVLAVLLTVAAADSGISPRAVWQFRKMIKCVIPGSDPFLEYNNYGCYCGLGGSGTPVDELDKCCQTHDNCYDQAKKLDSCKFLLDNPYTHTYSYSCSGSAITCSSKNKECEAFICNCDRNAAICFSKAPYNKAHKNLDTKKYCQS

[11] = molecular target: T5, Corticotropin-releasing factor receptor 2/Corticotropin-releasing factor-binding protein (Homo sapiens, UniProt P24387+Q13324); assay: Dose Response confirmation of uHTS hits for small molecule antagonists of the CRF-binding protein and CRF-R2 receptor complex.; type: functional; conditions: read-out: IC50_Mean
T5 sequence (Q13324 whole entry): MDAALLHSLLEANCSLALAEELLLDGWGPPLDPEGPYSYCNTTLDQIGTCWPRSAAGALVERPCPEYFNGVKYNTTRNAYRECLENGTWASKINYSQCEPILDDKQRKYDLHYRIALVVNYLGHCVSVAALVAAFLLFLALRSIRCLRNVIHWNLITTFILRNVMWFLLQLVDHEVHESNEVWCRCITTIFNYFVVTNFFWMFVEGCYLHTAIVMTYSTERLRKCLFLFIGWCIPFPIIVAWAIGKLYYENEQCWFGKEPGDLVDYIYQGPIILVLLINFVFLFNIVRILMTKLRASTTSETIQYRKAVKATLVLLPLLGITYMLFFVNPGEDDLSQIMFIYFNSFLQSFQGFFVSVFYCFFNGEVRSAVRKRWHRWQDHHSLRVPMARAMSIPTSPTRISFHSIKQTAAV
T5 sequence (P24387 whole entry): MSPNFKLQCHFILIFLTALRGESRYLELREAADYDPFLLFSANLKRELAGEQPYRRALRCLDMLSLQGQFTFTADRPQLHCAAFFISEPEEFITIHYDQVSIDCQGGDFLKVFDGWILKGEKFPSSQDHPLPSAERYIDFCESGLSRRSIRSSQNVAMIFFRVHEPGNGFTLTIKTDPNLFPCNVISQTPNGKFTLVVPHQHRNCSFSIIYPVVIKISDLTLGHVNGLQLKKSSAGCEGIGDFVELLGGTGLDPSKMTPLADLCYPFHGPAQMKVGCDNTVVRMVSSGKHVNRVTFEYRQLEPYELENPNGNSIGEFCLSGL

[12] = molecular target: T5, Corticotropin-releasing factor receptor 2/Corticotropin-releasing factor-binding protein; assay: activators of CRF receptor 2 with binding protein – uHTS hits, confirmation (AID 602473); type: functional; conditions: read-out: EC50_Mean
[13] = HEp-2 cell cytotoxicity, dose response, cytotoxicity control for RSV inhibitor project, HTS (AID 2410); type: functional; conditions: human respiratory syncytial virus
[14] = test system: Streptococcus sp. 'group A'; assay: growth inhibition of control SK(-) GAS strain, dose response, counter-screen for streptokinase expression inhibitor project, luminescence, kanamycin, BacTiterGlo, confirmation (AID 1900); type: functional, organism-based
Streptokinase A = molecular target: T6, Streptokinase A (Streptococcus pyogenes serotype M1, UniProt P10520); assay: S. pyogenes streptokinase expression inhibitors, potency, dose response, plasminogen activation absorbance, OD405 (AID 1914); type: functional, Streptococcus pyogenes M1 GAS;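 note: secreted streptokinase activity via plasminogen activation per viability signal from cell pellet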
T6 sequence (P10520 whole entry): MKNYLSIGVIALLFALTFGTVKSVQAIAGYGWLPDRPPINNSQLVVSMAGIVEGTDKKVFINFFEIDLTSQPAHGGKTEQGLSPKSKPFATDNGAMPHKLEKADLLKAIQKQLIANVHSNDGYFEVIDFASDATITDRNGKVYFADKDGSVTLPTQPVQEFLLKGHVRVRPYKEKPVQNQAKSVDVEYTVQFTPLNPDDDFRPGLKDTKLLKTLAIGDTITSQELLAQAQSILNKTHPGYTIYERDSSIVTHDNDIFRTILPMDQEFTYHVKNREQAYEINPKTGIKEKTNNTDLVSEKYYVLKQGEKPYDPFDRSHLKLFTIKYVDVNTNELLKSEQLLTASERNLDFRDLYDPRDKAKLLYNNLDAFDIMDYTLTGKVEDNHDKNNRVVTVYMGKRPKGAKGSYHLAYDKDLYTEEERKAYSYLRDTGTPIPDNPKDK

Streptococcus = assay: Group A Streptococcus viability loss, dose response, counter-screen for streptokinase expression inhibitor project, luminescence, BacTiterGlo (AID 1915); type: functional, organism-based;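 note: potency for reduction of bacterial viability or growth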
[15] = molecular target: FAD-linked sulfhydryl oxidase ALR (Homo sapiens, UniProt P55789); assay: inhibitors of human ALR sulfhydryl oxidase, dose response, biochemical, H2O2 detection, luminescence, cherry-pick (AID 493248)
Sequence of FAD-linked sulfhydryl oxidase ALR (P55789 whole entry): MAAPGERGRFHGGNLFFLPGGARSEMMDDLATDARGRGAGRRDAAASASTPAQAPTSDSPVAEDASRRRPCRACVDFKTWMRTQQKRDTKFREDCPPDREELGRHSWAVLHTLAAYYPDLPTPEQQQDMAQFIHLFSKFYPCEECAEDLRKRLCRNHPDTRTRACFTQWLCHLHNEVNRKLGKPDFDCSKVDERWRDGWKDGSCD

Genome polyprotein = Genome polyprotein (dengue virus type 2, UniProt P29990); assay: Dengue-2 NS5 methyltransferase inhibitors, primary screen, biochemical, confirmation dose response (AID 588689); type: functional
Sequence of Genome polyprotein (P29990 2492-3391 limits assumed): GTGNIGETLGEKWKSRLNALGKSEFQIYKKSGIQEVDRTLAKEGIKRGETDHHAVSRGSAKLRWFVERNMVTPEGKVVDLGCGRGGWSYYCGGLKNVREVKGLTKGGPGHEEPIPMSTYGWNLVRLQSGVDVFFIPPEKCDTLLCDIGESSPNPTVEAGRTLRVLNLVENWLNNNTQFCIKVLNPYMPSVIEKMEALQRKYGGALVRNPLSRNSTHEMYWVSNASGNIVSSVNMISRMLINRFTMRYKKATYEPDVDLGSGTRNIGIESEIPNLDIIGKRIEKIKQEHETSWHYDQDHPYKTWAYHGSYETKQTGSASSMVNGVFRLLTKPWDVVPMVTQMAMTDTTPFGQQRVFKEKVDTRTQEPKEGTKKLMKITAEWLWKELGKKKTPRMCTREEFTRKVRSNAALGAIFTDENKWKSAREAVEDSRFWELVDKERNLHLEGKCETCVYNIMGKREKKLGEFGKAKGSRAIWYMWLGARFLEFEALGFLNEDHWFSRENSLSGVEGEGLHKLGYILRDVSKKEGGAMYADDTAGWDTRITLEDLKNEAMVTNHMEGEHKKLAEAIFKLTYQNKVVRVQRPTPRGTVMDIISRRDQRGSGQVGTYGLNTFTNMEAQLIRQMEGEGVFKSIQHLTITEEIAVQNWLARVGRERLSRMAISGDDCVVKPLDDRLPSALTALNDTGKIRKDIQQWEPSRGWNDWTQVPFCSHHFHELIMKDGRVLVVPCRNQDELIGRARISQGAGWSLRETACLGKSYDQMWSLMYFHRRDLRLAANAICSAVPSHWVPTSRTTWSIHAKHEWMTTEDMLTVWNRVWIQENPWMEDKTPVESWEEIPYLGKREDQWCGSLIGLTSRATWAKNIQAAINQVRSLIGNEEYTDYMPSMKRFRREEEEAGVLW

[16] = molecular target: DNA (cytosine-5)-methyltransferase 1 (Homo sapiens, UniProt P26358); assay: DNMT1 methyltransferase inhibitors, confirmation, biochemical, fluorescent molecular beacon (AID 602386); type: functional
Sequence of DNA (cytosine-5)-methyltransferase 1 (P26358 whole entry): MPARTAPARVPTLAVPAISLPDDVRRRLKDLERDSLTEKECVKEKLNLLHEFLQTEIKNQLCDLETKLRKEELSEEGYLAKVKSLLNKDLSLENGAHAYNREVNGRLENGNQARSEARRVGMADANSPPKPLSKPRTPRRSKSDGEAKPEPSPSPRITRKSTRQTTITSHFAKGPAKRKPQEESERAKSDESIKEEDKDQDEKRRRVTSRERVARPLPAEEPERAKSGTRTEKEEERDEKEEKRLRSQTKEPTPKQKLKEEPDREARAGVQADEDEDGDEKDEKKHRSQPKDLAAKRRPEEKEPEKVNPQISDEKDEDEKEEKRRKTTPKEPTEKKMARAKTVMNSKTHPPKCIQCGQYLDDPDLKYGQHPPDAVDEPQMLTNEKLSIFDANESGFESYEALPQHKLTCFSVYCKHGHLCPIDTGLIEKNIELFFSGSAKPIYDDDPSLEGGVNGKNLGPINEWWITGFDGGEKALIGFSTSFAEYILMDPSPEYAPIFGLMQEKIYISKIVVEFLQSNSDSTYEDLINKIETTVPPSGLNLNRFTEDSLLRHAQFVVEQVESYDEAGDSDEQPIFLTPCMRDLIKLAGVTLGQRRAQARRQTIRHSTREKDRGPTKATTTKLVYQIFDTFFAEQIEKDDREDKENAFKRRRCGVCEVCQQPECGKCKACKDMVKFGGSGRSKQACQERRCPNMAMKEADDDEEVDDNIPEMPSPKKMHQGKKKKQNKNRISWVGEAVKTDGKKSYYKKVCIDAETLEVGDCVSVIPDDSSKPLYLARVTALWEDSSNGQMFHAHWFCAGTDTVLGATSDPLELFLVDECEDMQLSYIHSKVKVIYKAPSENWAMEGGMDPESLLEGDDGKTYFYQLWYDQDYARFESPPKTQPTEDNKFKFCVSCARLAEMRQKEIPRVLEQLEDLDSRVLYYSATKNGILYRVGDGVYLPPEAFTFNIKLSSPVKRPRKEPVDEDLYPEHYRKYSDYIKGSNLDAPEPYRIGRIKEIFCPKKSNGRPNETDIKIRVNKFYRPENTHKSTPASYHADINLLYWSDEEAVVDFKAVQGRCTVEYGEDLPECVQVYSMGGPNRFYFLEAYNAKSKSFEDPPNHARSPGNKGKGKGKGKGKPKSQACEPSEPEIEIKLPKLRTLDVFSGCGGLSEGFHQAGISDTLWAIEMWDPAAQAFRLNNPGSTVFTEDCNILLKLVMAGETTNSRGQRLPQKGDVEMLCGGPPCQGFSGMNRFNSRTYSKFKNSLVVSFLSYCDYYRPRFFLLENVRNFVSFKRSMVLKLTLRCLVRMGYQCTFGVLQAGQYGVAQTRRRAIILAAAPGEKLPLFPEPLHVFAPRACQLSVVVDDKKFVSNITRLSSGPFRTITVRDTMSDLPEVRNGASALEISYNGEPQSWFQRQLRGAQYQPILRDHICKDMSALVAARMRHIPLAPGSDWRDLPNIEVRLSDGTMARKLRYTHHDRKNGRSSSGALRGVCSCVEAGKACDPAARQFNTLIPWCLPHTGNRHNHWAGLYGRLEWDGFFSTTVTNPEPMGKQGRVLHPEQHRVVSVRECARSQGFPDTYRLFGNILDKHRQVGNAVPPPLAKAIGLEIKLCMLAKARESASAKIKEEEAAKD

Cc1nc(-c2cccnc2)sc1C(=O)Nc1cccc(C(F)(F)F)c1
EC50 [1]: 15.7 µM (active)
EC50 [2]: 26.8 µM (active)
AC50 [3]: 3.76 µM (active)

COc1ccc(N2C(=O)CC3(CC(c4ccccc4F)=NO3)C2=O)cc1 (configuration not stated)
EC50 [4]: > 100 µM (inactive)

Sc1nnc(-c2cc(-c3ccccc3)[nH]n2)n1/N=C/c1c2ccccc2cc2ccccc12
IC50 [5]: 6.05 µM (not active)
IC50 (CHO-K1): > 66.2 µM (inactive)
IC50 [6]: > 49.8 µM (inactive)
IC50 [7]: 0.585 µM (active)
IC50 [8]: 23.7 µM (inactive)
IC50 (Orexin receptor type 2 [9]): > 88.8 µM (inactive)
IC50 (Orexin receptor type 2 [10]): > 50 µM (inactive)

O=C(C1CC(c2ccc(F)cc2)=NO1)N1CCCc2ccccc21 (configuration not stated)
EC50 [4]: > 100 µM (inactive)

COc1ccc(/C=C2\CCc3ccccc3C2=O)c(OC)c1OC
IC50 (Cysteine protease ATG4B): 38.6 µM (inactive)
IC50 (Phospholipase A2): 31.7 µM (inactive)
IC50 [11]: > 47.1 µM (inactive)
EC50 [12]: > 53 µM (inactive)

O=C(O)CN1C(=O)/C(=C\c2cc(Br)ccc2OCc2ccc(Cl)cc2)SC1=S
CC50 [13]: 14.9 µM (active)
EC50 [14]: 1.58 µM (active)
EC50 (Streptokinase A): > 50 µM (not active)
EC50 (Streptococcus): 3.08 µM (active)
AC50 [15]: 1.58 µM (active)
IC50 (Cysteine protease ATG4B): 7.13 µM (active)
IC50 (Phospholipase A2): 4.68 µM (active)
IC50 (Genome polyprotein): 24.8 µM (active)
IC50 [16]: 7.36 µM (active)

O=C(Nc1ccc2snnc2c1)N1CCN(c2ccccc2)CC1
AC50 [15]: 0.913 µM (active)
AC50 [3]: 0.0986 µM (active)
